The text below walks through data of PMC2901518 (British Journal of Pharmacology, 2010).

Read-outs that look alike come from different tables or passages of the source.

The target in assay [1] is T1, rat Y1 receptor (association with β-arrestin2) (Rattus norvegicus, UniProt P21555).
T1 sequence (P21555 2-382): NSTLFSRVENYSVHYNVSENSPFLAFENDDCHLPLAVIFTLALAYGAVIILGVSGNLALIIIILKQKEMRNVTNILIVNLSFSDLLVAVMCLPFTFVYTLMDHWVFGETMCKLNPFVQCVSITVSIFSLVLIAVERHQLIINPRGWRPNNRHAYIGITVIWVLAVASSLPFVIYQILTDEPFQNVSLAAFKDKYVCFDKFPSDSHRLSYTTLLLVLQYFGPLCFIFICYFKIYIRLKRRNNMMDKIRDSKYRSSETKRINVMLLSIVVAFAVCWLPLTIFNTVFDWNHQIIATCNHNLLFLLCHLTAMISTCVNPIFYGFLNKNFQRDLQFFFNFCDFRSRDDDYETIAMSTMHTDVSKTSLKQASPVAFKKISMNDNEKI
The assay is classed as cell-based.

The next assay has as its target Y1 receptor (Y1–YFP) (Rattus norvegicus, UniProt P21555). Type of assay: cell-based.
Setting [2] is: 30 min pre-incubation, NPY 60 min.
[3] abbreviates: example triplicate experiment, Figure 6.

Sequence of Y1 receptor (Y1–YFP) (P21555 whole entry): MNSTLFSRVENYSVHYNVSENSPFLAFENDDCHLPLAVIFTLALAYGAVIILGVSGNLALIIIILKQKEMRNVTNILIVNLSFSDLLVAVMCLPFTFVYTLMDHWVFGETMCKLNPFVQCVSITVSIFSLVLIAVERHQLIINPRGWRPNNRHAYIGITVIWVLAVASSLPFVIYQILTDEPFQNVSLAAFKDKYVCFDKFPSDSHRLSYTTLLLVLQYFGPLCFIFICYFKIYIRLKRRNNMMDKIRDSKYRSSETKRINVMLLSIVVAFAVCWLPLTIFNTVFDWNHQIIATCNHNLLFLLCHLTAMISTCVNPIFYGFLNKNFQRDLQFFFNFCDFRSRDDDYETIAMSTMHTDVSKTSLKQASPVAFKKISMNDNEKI

In the case of `N=C(N)NCCC[C@@H](NC(=O)C(c1ccccc1)c1ccccc1)C(=O)NCc1ccc(O)cc1` [BIBP3226, (R)-N2-(diphenylacetyl)-N-[(4-hydroxyphenyl)methyl]-argininamide], in assay [1], the “Schild slope, example experiment” value was found to be 1.1; the “Schild slope, pooled” value is 1.1 ± 0.1; the “effect of antagonist alone on Y1/βarr2 BiFC, % of 1 µM NPY response” value is reported as −4.5 ± 10.0%.
Take “homodimeric Ile-Glu-Pro-Dpr-Tyr-Arg-Leu-Arg-Tyr-CONH2 [GR231118]”: the “agonist activity in Y1–YFP endocytosis assay” value at Y1 receptor (Y1–YFP) was “inactive”. Moreover, in assay [1] (setting [2]), the “Schild slope, pooled” value was 1.5 ± 0.2 and the “pA2 (Schild plot), pooled” value was 8.6 ± 0.2. Further, the “agonist activity for stimulation of Y1/βarr2 BiFC” value in assay [1] (1 h incubation) was “inactive”. Moreover, in assay [1] (setting [3]), the “Schild slope, example experiment” value was 1.9 and the “pA2 (Schild plot), example experiment” value came to 8.3.
